Experimental data published in patent US7652055B2, “2-imidazolines” (Hoffman-La Roche Inc., priority 2007, dated 2010).

Molecular target: T1, TAAR1 (Mus musculus, UniProt Q923Y8)
T1 construct: expressed in transfected cells; host or cells: HEK293 (ATCC # CRL-1573), stably transfected with pIRESneo2 expression plasmid; membranes prepared
Test: Radioligand binding assay on membranes of HEK293 cells stably expressing TAAR1
Details: for Ki: mouse TAAR1, radioligand [3H]-rac-2-(1,2,3,4-tetrahydro-1-naphthyl)-2-imidazoline at 60 nM, 4° C., 30 min
Description: Construction of TAAR Expression Plasmids and Stably Transfected Cell Lines
For the construction of expression plasmids the coding sequences of human, rat and mouse TAAR 1 were amplified from genomic DNA essentially as described by Lindemann et al.. The Expand High Fidelity PCR System (Roche Diagnostics) was used with 1.5 mM Mg^2+ and purified PCR products were cloned into pCR2.1-TOPO cloning vector (Invitrogen) following the instructions of the manufacturer. PCR products were subcloned into the pIRESneo2 vector (BD Clontech, Palo Alto, Calif.), and expression vectors were sequence verified before introduction in cell lines.
HEK293 cells (ATCC # CRL-1573) were cultured essentially as described Lindemann et al. (2005). For the generation of stably transfected cell lines HEK293 cells were transfected with the pIRESneo2 expression plasmids containing the TAAR coding sequences (described above) with Lipofectamine 2000 (Invitrogen) according to the instructions of the manufacturer, and 24 hrs post transfection the culture medium was supplemented with 1 mg/ml G418 (Sigma, Buchs, Switzerland). After a culture period of about 10 d clones were isolated, expanded and tested for responsiveness to trace amines (all compounds purchased from Sigma) with the cAMP Biotrak Enzyme immunoassay (EIA) System (Amersham) following the non-acetylation EIA procedure provided by the manufacturer.
Membrane Preparation and Radioligand Binding
Cells at confluence were rinsed with ice-cold phosphate buffered saline without Ca^2+ and Mg^2+ containing 10 mM EDTA and pelleted by centrifugation at 1000 rpm for 5 min at 4° C. The pellet was then washed twice with ice-cold phosphate buffered saline and cell pellet was frozen immediately by immersion in liquid nitrogen and stored until use at −80° C. Cell pellet was then suspended in 20 ml HEPES-NaOH (20 mM), pH 7.4 containing 10 mM EDTA, and homogenized with a Polytron (PT 3000, Kinematica) at 10,000 rpm for 10 s. The homogenate was centrifuged at 48,000×g for 30 min at 4° C. and the pellet resuspended in 20 ml HEPES-NaOH (20 mM), pH 7.4 containing 0.1 mM EDTA (buffer A), and homogenized with a Polytron at 10,000 rpm for 10 s. The homogenate was then centrifuged at 48,000×g for 30 min at 4° C. and the pellet resuspended in 20 ml buffer A, and homogenized with a Polytron at 10,000 rpm for 10 s. Protein concentration was determined by the method of Pierce (Rockford, Ill.). The homogenate was then centrifuged at 48,000×g for 10 min at 4° C., resuspended in HEPES-NaOH (20 mM), pH 7.0 including MgCl2 (10 mM) and […] homogenized with a Polytron at 10,000 rpm for 10 s.
Binding assay was performed at 4° C. in a final volume of 1 ml, and with an incubation time of 30 min. The radioligand [^3H]-rac-2-(1,2,3,4-tetrahydro-1-naphthyl)-2-imidazoline was used at a concentration equal to the calculated Kd value of 60 nM to give a bound at around 0.1% of the total added radioligand concentration, and a specific binding which represented approximately 70-80% of the total binding. Non-specific binding was defined as the amount of [^3H]-rac-2-(1,2,3,4-tetrahydro-1-naphthyl)-2-imidazoline bound in the presence of the appropriate unlabelled ligand (10 μM). Competing ligands were tested in a wide range of concentrations (10 pM-30 μM). […] Each experiment was performed in duplicate. All incubations were terminated by rapid filtration through UniFilter-96 plates (Packard Instrument Company) and glass filter GF/C, pre-soaked for at least 2 h in polyethylenimine 0.3%, and using a Filtermate 96 Cell Harvester (Packard Instrument Company). The tubes and filters were then washed 3 times with 1 ml aliquots of cold buffer B. Filters were not dried and soaked in Ultima gold (45 μl/well, Packard Instrument Company) and bound radioactivity was counted by a TopCount Microplate Scintillation Counter (Packard Instrument Company).

T1 sequence (Q923Y8 whole entry): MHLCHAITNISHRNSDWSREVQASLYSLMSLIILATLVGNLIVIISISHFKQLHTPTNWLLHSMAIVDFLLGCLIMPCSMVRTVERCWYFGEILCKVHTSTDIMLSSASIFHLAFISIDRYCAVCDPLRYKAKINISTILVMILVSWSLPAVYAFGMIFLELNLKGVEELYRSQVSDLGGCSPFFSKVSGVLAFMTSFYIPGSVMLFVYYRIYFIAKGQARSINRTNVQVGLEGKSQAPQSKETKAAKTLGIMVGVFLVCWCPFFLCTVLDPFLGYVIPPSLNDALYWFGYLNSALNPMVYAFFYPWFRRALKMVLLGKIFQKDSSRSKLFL

Ki [µM]	SMILES	Kd (radioligand of the binding assay, TAAR1 species not stated at this place, read-out: calculated Kd value of the radioligand) [nM]
–	c1ccc2c(c1)CCCC2C1=NCCN1 (racemic) [[^3H]-rac-2-(1,2,3,4-tetrahydro-1-naphthyl)-2-imidazoline, reference compound]	60
0.0022	Clc1cc(NCC2=NCCN2)ccc1Br [Example 1, (4-Bromo-3-chloro-phenyl)-(4,5-dihydro-1H-imidazol-2-ylmethyl)-amine]	–
0.0011	Fc1cc(NCC2=NCCN2)ccc1Cl [Example 2, (4-Chloro-3-fluoro-phenyl)-(4,5-dihydro-1H-imidazol-2-ylmethyl)-amine]	–
0.0084	CN(CC1=NCCN1)c1cccc(Cl)c1 [Example 3, (3-Chloro-phenyl)-(4,5-dihydro-1H-imidazol-2-ylmethyl)-methyl-amine]	–
0.0059	CN(CC1=NCCN1)c1ccc(Cl)c(Cl)c1 [Example 4, (3,4-Dichloro-phenyl)-(4,5-dihydro-1H-imidazol-2-ylmethyl)-methyl-amine]	–
0.0028	Cc1c(NCC2=NCCN2)ccc2occc12 [Example 7, (4,5-Dihydro-1H-imidazol-2-ylmethyl)-(4-methyl-benzofuran-5-yl)-amine]	–
0.0443	COc1ccc(Cc2ccc(NCC3=NCCN3)cc2)cc1 [Example 8, (4,5-Dihydro-1H-imidazol-2-ylmethyl)-[4-(4-methoxy-benzyl)-phenyl]-amine]	–
0.0432	COc1ccccc1N(C)CC1=NCCN1 [Example 9, (4,5-Dihydro-1H-imidazol-2-ylmethyl)-(2-methoxy-phenyl)-methyl-amine]	–
0.0158	CC(C)Oc1ccc(C(=O)CCc2ccc(OC(C)C3=NCCN3)cc2)cc1 (stereo not drawn) [Example 12, 3-{4-[1-(4,5-Dihydro-1H-imidazol-2-yl)-ethoxy]-phenyl}-1-(4-isopropoxy-phenyl)-propan-1-one]	–
0.025	CC(C)Oc1ccc(OCc2ccc(OCC3=NCCN3)cc2)cc1 [Example 13, 2-[4-(4-Isopropoxy-phenoxymethyl)-phenoxymethyl]-4,5-dihydro-1H-imidazole]	–
0.0054	c1ccc(Cc2cccc(OCC3=NCCN3)c2)cc1 [Example 14, 2-(3-Benzyl-phenoxymethyl)-4,5-dihydro-1H-imidazole]	–
0.0441	c1ccc(CCCc2ccc(OCC3=NCCN3)cc2)cc1 [Example 15, 2-[4-(3-Phenyl-propyl)-phenoxymethyl]-4,5-dihydro-1H-imidazole]	–
0.0329	Clc1ccc(OCC2=NCCN2)cc1Cl [Example 27, 2-(3,4-Dichloro-phenoxymethyl)-4,5-dihydro-1H-imidazole]	–
0.0075	Clc1cccc(SCC2=NCCN2)c1Cl [Example 31, 2-(2,3-Dichloro-phenylsulfanylmethyl)-4,5-dihydro-1H-imidazole]	–
0.044	Cc1ccc(NNC2=NCCN2)cc1C [Example 35, N-(4,5-Dihydro-1H-imidazol-2-yl)-N′-(3,4-dimethyl-phenyl)-hydrazine]	–
0.023	Clc1ccc(NCC2=NCCN2)cc1 [Example K1, (4-Chloro-phenyl)-(4,5-dihydro-1H-imidazol-2-ylmethyl)-amine]	–
0.007	Clc1cccc(NCC2=NCCN2)c1 [Example K2, (3-Chloro-phenyl)-(4,5-dihydro-1H-imidazol-2-ylmethyl)-amine]	–
0.0325	c1ccc(C2CC2)c(OCC2=NCCN2)c1 [Example K20, 2-(2-Cyclopropyl-phenoxymethyl)-4,5-dihydro-1H-imidazole]	–
0.0262	CC(Oc1c(Cl)cccc1Cl)C1=NCCN1 (stereo not drawn) [Example K21, 2-[1-(2,6-Dichloro-phenoxy)-ethyl]-4,5-dihydro-1H-imidazole]	–
0.0057	Cc1c(Cl)cccc1NNC1=NCCN1 [Example K25, N-(3-Chloro-2-methyl-phenyl)-N′-(4,5-dihydro-1H-imidazol-2-yl)-hydrazine]	–

SMILES	Ki [µM]	Kd (radioligand of the binding assay, TAAR1 species not stated at this place, read-out: calculated Kd value of the radioligand) [nM]
c1cc2ccc(OCC3=NCCN3)cc2o1 [Example 17, 2-(Benzofuran-6-yloxymethyl)-4,5-dihydro-1H-imidazole]	0.0372	–
FC(F)(F)c1cccc(OCC2=NCCN2)c1Cl [Example 20, 2-(2-Chloro-3-trifluoromethyl-phenoxymethyl)-4,5-dihydro-1H-imidazole]	0.0016	–
Fc1cccc(OCC2=NCCN2)c1F [Example 21, 2-(2,3-Difluoro-phenoxymethyl)-4,5-dihydro-1H-imidazole]	0.0341	–
Cc1c(O)ccc(OCC2=NCCN2)c1C [Example 24, 4-(4,5-Dihydro-1H-imidazol-2-ylmethoxy)-2,3-dimethyl-phenol]	0.093	–
Clc1ccccc1OCC1=NCCN1 [Example K10, 2-(2-Chloro-phenoxymethyl)-4,5-dihydro-1H-imidazole]	0.064	–
Clc1cccc(OCC2=NCCN2)c1Cl [Example K12, 2-(2,3-Dichloro-phenoxymethyl)-4,5-dihydro-1H-imidazole]	0.0063	–
FC(F)(F)c1cccc(OCC2=NCCN2)c1 [Example K17, 2-(3-Trifluoromethyl-phenoxymethyl)-4,5-dihydro-1H-imidazole]	0.0913	–
